Measurements published in the supplement of paper PMC10307832.

Key:
Test in all cases: relative viability (nuclei count vs DMSO), 5 days (fraction); higher = more cells survive
[1] = compound: C1=CC=C2C(=C1)C=CC(=C2SSC3=C(C=CC4=CC=CC=C43)O)O [IPA-3] + CC(=O)Nc1cccc(-n2c(=O)n(C3CC3)c(=O)c3c(Nc4ccc(I)cc4F)n(C)c(=O)c(C)c32)c1 [Trametinib] (partner 0.02 µM)
Outline: (§1)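 Lung cancer cell lines were pin-tool dosed in 1536-well plates on the day after seeding, with either a lone drug or a fixed anchor-drug dose plus five library-drug doses (not always all listed) in √10 steps. Nuclei were counted on 4× images after 5 days. Relative viability is the ratio of treated-well to vehicle-well nuclei counts, with each value a median of duplicate plates.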

[2] = compound: C1=CC=C2C(=C1)C=CC(=C2SSC3=C(C=CC4=CC=CC=C43)O)O [IPA-3] + CS(=O)(=O)N1CCN(Cc2cc3nc(-c4cccc5[nH]ncc45)nc(N4CCOCC4)c3s2)CC1 [Pictilisib] (partner 1 µM)
Outline: as §1

[3] = compound: Cc1ccc(-n2nc(C(C)(C)C)cc2NC(=O)Nc2ccc(OCCN3CCOCC3)c3ccccc23)cc1 [Doramapimod] + Cc1nc(NC(=O)N2CCC[C@H]2C(N)=O)sc1-c1ccnc(C(C)(C)C(F)(F)F)c1 [Alpelisib] (partner 2 µM)
Outline: as §1

[4] = compound: Cn1c(Nc2ccc(C(F)(F)F)cc2)nc2cc(Oc3ccnc(-c4ncc(C(F)(F)F)[nH]4)c3)ccc21 [RAF265] + N=C(N)NC(=N)NCCc1ccccc1 [Phenformin] (partner 250 µM)
Outline: as §1

Row | Cell Line | relative viability ([1]; first compound 0.2 µM) | relative viability ([1]; first compound 0.6325 µM) | relative viability ([1]; first compound 2 µM) | relative viability ([1]; first compound 6.325 µM) | relative viability ([1]; first compound 20 µM) | relative viability ([2]; first compound 0.2 µM) | relative viability ([2]; first compound 0.6325 µM) | relative viability ([2]; first compound 2 µM) | relative viability ([2]; first compound 6.325 µM) | relative viability ([2]; first compound 20 µM) | relative viability ([3]; first compound 0.02 µM) | relative viability ([3]; first compound 0.06325 µM) | relative viability ([3]; first compound 0.2 µM) | relative viability ([3]; first compound 0.6325 µM) | relative viability ([3]; first compound 2 µM) | relative viability ([4]; first compound 0.01 µM) | relative viability ([4]; first compound 0.03162 µM) | relative viability ([4]; first compound 0.1 µM) | relative viability ([4]; first compound 0.3162 µM) | relative viability ([4]; first compound 1 µM)
1 | NCI-H358 | 0.136 | 0.132 | 0.134 | 0.134 | 0.114 | 0.35 | 0.347 | 0.372 | 0.372 | 0.291 | 0.885 | 0.653 | 0.768 | 0.918 | 0.799 | 0.419 | 0.308 | 0.252 | 0.144 | 0.149
2 | NCI-H441 | 0.535 | 0.437 | 0.348 | 0.473 | 0.449 | 0.479 | 0.457 | 0.41 | 0.462 | 0.427 | 0.694 |  | 0.813 | 0.704 | 0.779 | 0.914 | 0.833 | 0.725 | 0.628 | 0.633
3 | NCI-H460 | 0.133 | 0.145 | 0.141 | 0.129 | 0.104 | 0.479 | 0.321 | 0.36 | 0.408 | 0.557 | 0.446 | 0.467 | 0.372 | 0.441 | 0.357 | 0.529 | 0.463 | 0.483 | 0.399 | 0.394
4 | NCI-H520 | 1.01 | 0.654 |  | 0.685 | 0.528 | 0.3 | 0.277 | 0.268 | 0.246 | 0.202 | 0.883 | 0.822 | 0.954 | 0.832 | 0.807 | 0.553 | 0.544 | 0.579 | 0.555 | 0.397
5 | NCI-H596 | 0.842 | 0.756 | 0.861 | 0.801 | 0.818 | 0.41 | 0.412 | 0.409 | 0.401 | 0.45 | 0.486 | 0.502 | 0.469 | 0.529 | 0.431 | 0.869 | 0.833 | 0.691 | 0.689 | 0.489
6 | NCI-H647 | 0.69 | 0.445 | 0.558 | 0.284 | 0.0977 | 0.44 | 0.351 | 0.363 | 0.434 | 0.471 | 1.26 | 1.15 | 1.14 | 1.12 | 1.03 | 0.432 | 0.515 | 0.38 | 0.282 | 0.212
7 | NCI-H650 | 1.11 | 0.973 | 0.888 | 1.1 | 1.32 | 1.15 | 0.89 | 0.922 | 1.17 | 1.15 | 1.16 | 1.17 | 1.23 | 1.34 | 1.23 | 0.469 | 0.438 | 0.383 | 0.348 | 0.289
8 | NCI-H661 | 0.679 | 0.584 | 0.613 | 0.589 | 0.555 | 0.409 | 0.458 | 0.472 | 0.547 | 0.418 | 0.593 | 0.732 | 0.618 | 1.04 | 0.515 | 0.258 | 0.27 | 0.275 | 0.281 | 0.261
